This is an account of results in patent publication EP3858439A1 (priority 2020, dated 2021).

In the test the target is T1, human µ-opioid receptor (Homo sapiens, UniProt P35372).
T1 construct: expressed in transfected cells; host or cells: CHO-K1
The test can be described thus: Binding assay to human µ-opioid receptor ([3H]-DAMGO displacement). The protocol:
Binding assay to human µ-opioid receptor
Transfected CHO-K1 cell membranes (20 µg) were incubated with [^3H]-DAMGO (1 nM) in assay buffer containing Tris-HCl 50 mM, MgCl2 5 mM at pH 7.4.
Plates were incubated at 27 °C for 60 min. After the incubation period, the reaction mixture was then transferred to MultiScreen HTS, FC plates (Millipore), filtered and plates were washed 3 times with ice-cold 10 mM Tris-HCl (pH 7.4).
Filters were dried and counted at approximately 40% efficiency in a MicroBeta scintillation counter (Perkin-Elmer) using EcoScint liquid scintillation cocktail.

Setting [1] is: Table 2, transfected CHO-K1 cell membranes, [3H]-DAMGO 1 nM, 60 min at 27 °C, read-out: Binding µ.

Structures can show the parent of a compound that is named as a salt. Where two headings read alike, the source gives them in different places.

T1 sequence (P35372 whole entry): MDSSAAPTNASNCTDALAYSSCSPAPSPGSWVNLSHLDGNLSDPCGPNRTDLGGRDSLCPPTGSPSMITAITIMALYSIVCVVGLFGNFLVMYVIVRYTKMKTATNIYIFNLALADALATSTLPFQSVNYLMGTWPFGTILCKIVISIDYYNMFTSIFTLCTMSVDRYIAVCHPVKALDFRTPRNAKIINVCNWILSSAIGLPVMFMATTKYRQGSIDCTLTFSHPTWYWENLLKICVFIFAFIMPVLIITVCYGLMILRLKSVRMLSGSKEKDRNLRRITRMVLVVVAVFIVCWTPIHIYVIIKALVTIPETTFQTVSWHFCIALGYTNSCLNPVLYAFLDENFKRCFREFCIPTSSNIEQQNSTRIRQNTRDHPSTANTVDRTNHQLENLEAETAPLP

`CCNCC(Cc1ccccc1)C(=O)N1CCC(c2ccccc2)(N(C)C)CC1` (stereo not shown) [Example 30, 2-benzyl-1-(4-(dimethylamino)-4-phenylpiperidin-1-yl)-3-(ethylamino)propan-1-one dihydrochloride] displayed a Ki of under 100 nM.

Compound `CNCCC(Cc1ccccc1)C(=O)N1CCC(c2ccccc2)(N(C)C)CC1` (stereo not shown) [Example 31, 2-benzyl-1-(4-(dimethylamino)-4-phenylpiperidin-1-yl)-4-(methylamino)butan-1-one dihydrochloride] had a Ki of 100 to 500 nM.

In turn, `CNCC(Cc1ccccc1)C(=O)N1CCC(c2cccc(O)c2)(N(C)C)CC1` (stereo not shown) [Example 34, 2-benzyl-1-(4-(dimethylamino)-4-(3-hydroxyphenyl)piperidin-1-yl)-3-(methylamino)propan-1-one dihydrochloride] registered a Ki of under 100 nM.

As for `CN(C)C1(c2cccc(O)c2)CCN(C(=O)C2NCCc3ccccc32)CC1` (stereo not shown) [Example 35, (4-(dimethylamino)-4-(3-hydroxyphenyl)piperidin-1-yl)(1,2,3,4-tetrahydroisoquinolin-1-yl)methanone dihydrochloride], the Ki under setting [1] is under 100 nM.

As to `CNCC(Cc1ccccc1)C(=O)N1CCC(c2cccc(OC)c2)(N(C)C)CC1` (stereo not shown) [Example 41, 2-benzyl-1-(4-(dimethylamino)-4-(3-methoxyphenyl)piperidin-1-yl)-3-(methylamino)propan-1-one dihydrochloride], the Ki under setting [1] was under 100 nM.

Consider `CNCC(Cc1ccccc1)C(=O)N1CCC(NC)(c2cccc(O)c2)CC1` (stereo not shown) [Example 44, 2-benzyl-1-(4-(3-hydroxyphenyl)-4-(methylamino)piperidin-1-yl)-3-(methylamino)propan-1-one dihydrochloride], for which the Ki is under 100 nM.

With `C[C@H](N)[C@H](Cc1ccccc1)C(=O)N1CCC(c2ccccc2)(N(C)C)CC1` [Example 48, (2S,3S)-3-amino-2-benzyl-1-(4-(dimethylamino)-4-phenylpiperidin-1-yl)butan-1-one dihydrochloride], the Ki under setting [1] is under 100 nM.

In the case of `C[C@@H](N)[C@@H](Cc1ccccc1)C(=O)N1CCC(c2ccccc2)(N(C)C)CC1` [Example 49, (2R,3R)-3-amino-2-benzyl-1-(4-(dimethylamino)-4-phenylpiperidin-1-yl)butan-1-one dihydrochloride], the Ki under setting [1] is 100 to 500 nM.

As for `CNCC(Cc1cccc(F)c1)C(=O)N1CCC(c2ccccc2)(N(C)C)CC1` (stereo not shown) [Example 52, 1-(4-(dimethylamino)-4-phenylpiperidin-1-yl)-2-(3-fluorobenzyl)-3-(methylamino) propan-1-one], the Ki was under 100 nM.

As to `CNCC(Cc1ccccc1C#N)C(=O)N1CCC(c2ccccc2)(N(C)C)CC1` (stereo not shown) [Example 55, 2-(3-(4-(dimethylamino)-4-phenylpiperidin-1-yl)-2-((methylamino)methyl)-3-oxopropyl)benzonitrile dihydrochloride], the Ki fell in the range of 100 to 500 nM.

`CNCC(Cc1ccccc1F)C(=O)N1CCC(c2ccccc2)(N(C)C)CC1` (stereo not shown) [Example 57, 1-(4-(dimethylamino)-4-phenylpiperidin-1-yl)-2-(2-fluorobenzyl)-3-(methylamino)propan-1-one dihydrochloride]: the Ki was under 100 nM.

Turning to `CC[C@@H](c1ccccc1)[C@@H](CNC)C(=O)N1CCC(NC)(c2ccc(F)cc2)CC1` [Example 65, (2S,3R)-1-(4-(4-fluorophenyl)-4-(methylamino)piperidin-1-yl)-2-((methylamino)methyl)-3-phenylpentan-1-one], under setting [1], the Ki was under 100 nM.

Take `CC[C@@H](c1cccc(Cl)c1)[C@@H](CN)C(=O)N1CCC(c2ccccc2)(N(C)C)CC1` [Example 66, (2S,3R)-2-(aminomethyl)-3-(3-chlorophenyl)-1-(4-(dimethylamino)-4-phenylpiperidin-1-yl)pentan-1-one]: under setting [1], the Ki is under 100 nM.

For the compound `CC[C@@H](c1cccc(Cl)c1)[C@@H](CNC)C(=O)N1CCC(c2ccccc2)(N(C)C)CC1` [Example 67, (2S,3R)-3-(3-chlorophenyl)-1-(4-(dimethylamino)-4-phenylpiperidin-1-yl)-2-((methylamino)methyl)pentan-1-one], the Ki under setting [1] was under 100 nM.

`CC[C@@H](c1cccc(Cl)c1)[C@@H](CNC)C(=O)N1CCC(NC)(c2ccc(F)cc2)CC1` [Example 69, (2S,3R)-3-(3-chlorophenyl)-1-(4-(4-fluorophenyl)-4-(methylamino)piperidin-1-yl)-2-((methylamino)methyl)pentan-1-one]: the Ki under setting [1] was under 100 nM.

`CNCC(Cc1ccccc1)C(=O)N1CCC(c2ccccc2)(N(C)C)CC1` (stereo not shown) [Example 70, 2-benzyl-1-(4-(dimethylamino)-4-phenylpiperidin-1-yl)-3-(methylamino)propan-1-one] showed a Ki of 100 to 500 nM.

As for `Cc1ccccc1CC(CN)C(=O)N1CCC(c2ccccc2)(N(C)C)CC1` (stereo not shown) [Example 75, 3-Amino-1-(4-(dimethylamino)-4-phenylpiperidin-1-yl)-2-(2-methylbenzyl)propan-1-one dihydrochloride], the Ki was in the range of 100 to 500 nM.

Compound `CN(C)C1(c2ccccc2)CCN(C(=O)C(CNCc2ccccc2)Cc2ccccc2)CC1` (stereo not shown) [Example 76, 2-Benzyl-3-(benzylamino)-1-(4-(dimethylamino)-4-phenylpiperidin-1-yl)propan-1-one dihydrochloride] came in with a Ki of under 100 nM.

For the compound `CNC[C@H](Cc1ccccc1)C(=O)N1CCC(c2ccccc2)(N(C)C)CC1` [Example 79, (S)-2-Benzyl-1-(4-(dimethylamino)-4-phenylpiperidin-1-yl)-3-(methylamino)propan-1-one dihydrochloride], the Ki is under 100 nM.

In the case of `CNC[C@@H](C(=O)N1CCC(c2ccccc2)(N(C)C)CC1)[C@H](C)c1ccccc1` [Example 85, (2S,3S)-1-(4-(Dimethylamino)-4-phenylpiperidin-1-yl)-2-((methylamino)methyl)-3-phenylbutan-1-one], the Ki was in the range of 100 to 500 nM.

Take `CNC[C@H](C(=O)N1CCC(c2ccccc2)(N(C)C)CC1)[C@@H](C)c1ccccc1` [Example 86, (2R,3R)-1-(4-(dimethylamino)-4-phenylpiperidin-1-yl)-2-((methylamino)methyl)-3-phenylbutan-1-one]: the Ki under setting [1] is under 100 nM.

For the compound `CNC[C@H](C(=O)N1CCC(c2ccccc2)(N(C)C)CC1)[C@H](C)c1ccccc1` [Example 87, (2R,3S)-1-(4-(dimethylamino)-4-phenylpiperidin-1-yl)-2-((methylamino)methyl)-3-phenylbutan-1-one], the Ki lay in the range of 100 to 500 nM.
